Results on six compounds are retold here after PMC3221659, “Targeting of Mitochondria-Endoplasmic Reticulum by Fluorescent Macrocyclic Compounds” (PLoS ONE, 2011).

A word on the IC50: it is the concentration needed to halve the response being measured.

In data set [1] the test system is human breast cancer cells (MCF-7). The data set is described as follows: MTT cytotoxicity assay, MCF-7. In kind it is cell-based. The following applies: MCF-7 cells; for IC50: Homo sapiens, MCF7, MTT, 48 h. How it is done: (§1) One of the key issues to consider a probe suitable for living cells use is its cellular toxicity. In this context, the cytotoxicity of the five synthesised macrocyclic compounds is assessed by a 3-(4,5-dimethylthiazol-2-yl)-2,5-diphenyltetrazolium bromide (MTT) assay. The cytotoxicity of the starting material 1,10-phenanthroline-2,9-dicarbaldehyde is measured by MTT assay for comparison. In this quantitative colorimetric assay, the amount of MTT reduced by cells to its formazan derivative is quantified spectroscopically at 570 nm and is considered equivalent to the number of viable cells. The cytotoxicity of the referred compounds is evaluated using human breast cancer cells (MCF-7), non-cancerous human dermal fibroblasts (NHDF) and human adult dermal skin fibroblasts (designated P14) obtained from the breast biopsy specimen of a person diagnosed with breast cancer. All cells have been exposed to the six different compounds in five concentrations ranging from 10 nM to 100 µM during a period of exposition of 48 h.
(§2) Cell viability was studied quantifying the extent of the reduction of 3-(4,5-dimethylthiazol-2-yl)-2,5-diphenyltetrazolium bromide (MTT) according to a previously described procedure. Briefly, cells were seeded in 48-well plates (0.5×10^4 cells/well) in the culture medium containing FBS and after 48 h they were treated with five concentrations (10 nM and 100 nM, 1 µM, 10 µM and 100 µM) of the different compounds for 48 h, with untreated cells serving as control. At the end of incubation the media in wells were removed and replaced with fresh media and MTT solution and incubated at 37°C for 4 h. Thereafter, media-containing MTT were removed and formazan crystals were dissolved and absorbance was recorded in Biorad 550 microplate reader at 570 nm. The extent of cell death was expressed as the percentage of cell viability in comparison with control cells.
(§3) All experiments were performed in triplicate. The IC50 values were calculated from the obtained dose-response curve by sigmoid fitting. Graphical results of citotoxicity were expressed as the average values ± SEM (standard error of mean). Comparison among multiple groups was analyzed by using a one-way ANOVA followed by Dunnet's post hoc tests to determine significant differences among the means. Difference between groups was considered statistically significant at P<0.05.
For orientation: Tetrazolium assays rely on reduction of a dye to a coloured formazan, in cell work by metabolically active cells.

Data set [2] has as its system NHDF cells. The data set is described as follows: Annexin V-FITC / PI flow cytometry, NHDF. In kind it is cell-based, human. The following applies: 10 µM, 48 h. How it is done:
For this purpose, the fluorescein isothiocyanate (FITC)-conjugated annexin V - PI (propidium iodide) flow cytometry assay is employed, allowing the identification of apoptosis and necrosis. Thus, MCF-7 and NHDF cells are treated with two concentrations (10 nM and 10 µM) of each compound for 48 h. These concentrations are […], except for [32]phen2N4 on MCF-7 cells.
To detect apoptosis, cells were stained with propidium iodide (PI) and fluorescein isothiocyanate (FITC)-conjugated annexin V using an Annexin V-FITC Apoptosis Detection Kit (BD PharmingenTM). Briefly, cells were seeded in […] flasks in the culture medium containing FBS and after reaching approximated 90% confluence they were treated with two concentrations (10 nM and 10 µM) of each compound for 48 h, with untreated cells serving as control. At the end of incubation, cells were harvested by trypsin-EDTA treatment, washed twice with cold PBS and resuspended with 1× binding buffer (1 mL). […] After the addition of […] of 1× binding buffer, stained cells were subjected to fluorescence-activated cell sorter (FACS) analysis using a FACSCalibur flow cytometer. The FITC fluorescence was measured between 515 and 545 nm and the PI fluorescence between 564 and 606 nm. […]
(In general: Flow cytometry measures light scatter and fluorescence of single cells or particles in a stream.)

Data set [3] relates to non-cancerous human dermal fibroblasts (NHDF). As to the kind of experiment: MTT cytotoxicity assay, NHDF. The format is cell-based. To be noted: NHDF cells, 48 h. How it is done:
as §1, with “All cells have been exposed to the six different compounds in five concentrations ranging from 10 nM to 100 µM during a period of exposition of 48 h.” left out
Cell viability was studied quantifying the extent of the reduction of 3-(4,5-dimethylthiazol-2-yl)-2,5-diphenyltetrazolium bromide (MTT) according to a previously described procedure. […] Thereafter, media-containing MTT were removed and formazan crystals were dissolved and absorbance was recorded in Biorad 550 microplate reader at 570 nm. The extent of cell death was expressed as the percentage of cell viability in comparison with control cells. […]

The test system of data set [4] is human adult dermal skin fibroblasts (P14). As to the kind of experiment: MTT cytotoxicity assay, P14. The format is cell-based. To be noted: P14 cells, 48 h; for IC50: Homo sapiens, Skin fibroblast; for reduction in cell viability (approximately 50%): 0.1 µM. How it is done:
as §1, §2, §3

The subject of another data set is MCF-7 cells. The data set is described as follows: Mitochondrial membrane potential by flow cytometry (CMXRos / MitoTracker Green), MCF-7. The format is cell-based, human. The following applies: 10 µM, 48 h. The source says: (§4) In order to study the effects of the compounds in mitochondrial membrane potential (MMP) of MCF-7 and NHDF cells, flow cytometry assay was employed to monitor any fluorescence changes in MitoTracker Green™ and red fluorescence of chloromethyl-X-rosamine (CMXRos), treatment with the uncoupler 2,4-dinitrophenol (2,4-DNP) to collapse the MMP. While MitoTracker Green™ staining was relatively unaffected by changes in MMP, the CMXRos staining of mitochondria is sensitive to MMP [30]. Also, laser scanning confocal microscopy was employed to analyze changes in mitochondrial localization by treated cells with uncoupler 2,4-DNP and staining with MitoTracker Green™ and compounds.
(§5) The assessment of mitochondrial membrane potential was determined as described previously. Briefly, the cells were incubated with 200 nM of MitoTracker Green™ and 200 nM of Mitotracker Red (CMXRos) for 30 min prior to harvesting. The 2,4-dinitrophenol (DNP) was used as a mitochondrial uncoupler (300 µM, 2 h). The cells were treated with compounds concentration 10 µM for 48 h. The relative mitochondrial membrane potential was analyzed by flow cytometry by measuring the mean intensity of FL1 (green) and FL4 (red) channels. The FL4/FL1 ratio intensities of compounds treated and positive control (DNP) were compared and indicated if the compounds change the mitochondrial membrane potential of the cells.

For data set [5], the system named is NHDF cells. As to the kind of experiment: Mitochondrial membrane potential by flow cytometry (CMXRos / MitoTracker Green), NHDF. The format is cell-based, human. To be noted: 10 µM, 48 h.
Excerpt: as §4, §5

The test system of data set [6] is MCF-7, NHDF and P14 cells. The data set is described as follows: Fluorescence and confocal microscopy: uptake and sub-cellular localization. In kind it is cell-based, human. The following applies: 10 nM and 100 µM over 48 h. How it is done:
The timescale of trafficking of these compounds and their sub-cellular localization have been subsequently examined in MCF-7, NHDF and P14 cells using fluorescence microscopy. The cells are mounting on 0.1 mm thick glass cover slips by withdrawal of the respectively growth medium.
The incubation times to test the ability compounds to penetrate into cells varied from 5 min to 48 h, and concentrations onto the cells were 10 nM and 100 µM by dissolving in appropriate medium. […] By analyzing each image recorded, all the compounds in all cells rapidly crossed the cell membrane (5 min) and induced a slight stain in the first minutes of incubation, depending on the type of cells. However, for incubation times longer than 30 min, it seems that this difference in the stained disappeared, thus appearing that the compounds were localized into an organelle of the cytoplasm.
Besides, the subcellular localization of the compounds has been confirmed by co-staining with MitoTracker™ (25 nM, 45 min of incubation) and ER-Tracker™ (100 nM, 30 min of incubation) probes in MCF-7, NHDF and P14 cells, with compound concentrations of 10 nM and 100 nM and for incubation times of 1 h.
After growth in the glass bottom culture dishes coated with collagen (1×10^4 cells/dish), the cells were incubated in the dark at 37°C with 10 nM of all the compounds and analyzed from 5 min to 48 h. […]

The compound `O=Cc1ccc2ccc3ccc(C=O)nc3c2n1` [1,10-phen, 1,10-phenanthroline-2,9-dicarbaldehyde, reference compound] showed an IC50 in data set [1] greater than 100 µM. Besides, the “percentage of late apoptotic cells” value in the data set with NHDF cells [2] is “about 20%”.
Consider `c1cc2ccc3ccc4nc3c2nc1CNCCNCCNCc1ccc2ccc3ccc(nc3c2n1)CNCCNCCNC4` [[30]phen2N6], for which, in data set [1], the IC50 is greater than 100 µM.
Turning to `CN1CCCNCc2cccc(n2)CNCCCN(C)CCCNCc2cccc(n2)CNCCC1` [Me2[28]py2N6], the IC50 in data set [1] is greater than 100 µM; in data set [3], 69.7 ± 3.02 µM; in data set [4], 36.8 ± 4.68 µM. Further, the “effect on mitochondrial membrane potential (red fluorescence, FL4/FL1) versus positive control 2,4-DNP” value in the data set on MCF-7 cells is recorded as “decrease of red fluorescence”.
`c1cc2ccc3ccc4nc3c2nc1CNCCCCCCNC4` [[16]phenN2] returned an IC50 in data set [1] greater than 100 µM. Moreover, the “reduction in cell viability (approximately 50%)” value in data set [4] is on record as “not observed”. Also, the “percentage of late apoptotic cells” value in the data set with NHDF cells [2] is “about 20%”. The “effect on mitochondrial membrane potential (red fluorescence, FL4/FL1) versus positive control 2,4-DNP” value in the data set with MCF-7 cells is “decrease of red fluorescence”. Further, in the data set on NHDF cells [5], the “effect on mitochondrial membrane potential (FL4/FL1 ratio) versus positive control 2,4-DNP” value was “modify the MMP”.
As to `c1cc2ccc3ccc4nc3c2nc1CN1CCCCCCN(C4)Cc2ccc3ccc4ccc(nc4c3n2)CN2CCCCCCN(Cc3ccc4ccc5ccc(nc5c4n3)C2)Cc2ccc3ccc4ccc(nc4c3n2)C1` [cryptphen], the IC50 in data set [1] is greater than 100 µM. For the same compound, in data set [4], the “reduction in cell viability (approximately 50%)” value is “not observed”. Moreover, in the data set on NHDF cells [5], the “effect on mitochondrial membrane potential (FL4/FL1 ratio) versus positive control 2,4-DNP” value is “modify the MMP”.
Take `c1cc2ccc3ccc4nc3c2nc1CNCCCCCCNCc1ccc2ccc3ccc(nc3c2n1)CNCCCCCCNC4` [[32]phen2N4]: the IC50 in data set [1] was less than 0.01 µM; in data set [3], 78.9 ± 2.82 µM; in data set [4], 85.3 ± 1.79 µM. In addition, in data set [1] (10 nM to 10 µM), the cytotoxicity result is on record as “highly cytotoxic”. In addition, the “signs of cytotoxicity in microscopy” value in data set [6] is “no relevant signs of cytotoxicity”.
